According to patent US8324280B2, “Treatment of prostate cancer with DDC inhibitor” (The University of British Columbia, priority 2008, dated 2012):

Assays:
PC3 cells = assay: cAMP assay in PC3 cells; type: cell-based
Method: (§1) PC3 and LNCaP cells were seeded in 12-well plates at a density of 1.5×10^5 cells/well. The next day, cells were gently washed three times with serum-free media to remove excess FBS and grown for a further 24 hours in the absence of serum. Cells were then stimulated with various concentrations of DA for 15 minutes or 5-HT for 10 minutes at 37° C. Cells were lysed and intracellular cAMP levels were determined using the cAMP Biotrak Enzymeimmunoassay System (Amersham Biosciences) following the manufacturer's instructions. Assays were performed in triplicate with two independent trials.

LNCaP cells [1] = assay: cAMP assay in LNCaP cells; type: cell-based, human; conditions: all concentrations; DA 15 minutes, 5-HT 10 minutes
Method: as §1

AR [2] = assay: AR transactivation assay (pARR3-tk-Luc) in AR transfected PC3 cells; type: cell-based, human
Excerpt: (§2) PC3 and LNCaP cells were transfected, treated with R1881 and used for luciferase assays, as described previously. Briefly, human AR expression plasmid (pcDNA3.1-hAR) and AR-regulated luciferase reporters, pARR3-tk-Luc or pPSA-630 bp-Luc (−630/+12 bp of the 5′ PSA flanking region) {Snoek, 1998 #136}, were cotransfected into cells, along with DDC expression plasmid (pDEST12.2-DDC) or control empty vector (pDEST12.2). Firefly luciferase values were normalized to renilla luciferase (PRL-TK reporter; Promega Corp.) and expressed as relative luciferase units (RLU).
Transactivation assays for AR were also performed in PC3 cells treated with dopamine (DA) and serotonin (5-HT, 5-hyroxytyrptamine), which were purchased from Sigma. As described above, cells were transfected with pcDNA3.1-hAR, pRL-TK-renilla and pARR3-tk-Luc reporter but DDC was excluded. Cells were then treated with or without 1 nM R1881 and varying concentrations of pure DA or 5-HT in 5% dextran-coated charcoal stripped FBS (DCC-FBS) for 24 hours before harvest and luciferase assay.

LNCaP cells [3] = assay: MTS cell proliferation assay, androgen-dependent LNCaP cells; type: cell-based, human; conditions: 10 μM, 8 days
Method: Cell proliferation assays were performed using the 3-(4,5-dimethylhiazol-2-yl)-5-(3-carboxymethoxyphenyl)-2-(4-sulfophenyl)-2H-tetrazolium Assay (MTS) according to the manufacturer's protocol, with minor modifications (Promega). LNCaP cells were plated in 96-well plates at a density of 3000 cells per well and incubated in RPMI medium containing 5% CSS for one day. On the following day, the DDC inhibitors, carbidopa (25 and 50 μM) and NSD-1015 (10 μM)±0.1 nM R1881 were added to each well in charcoal-stripped serum (CSS; Hyclone, VWR) RPMI media. The cells were harvested at days 0, 2, 4, 6 and 8, with a medium change every 3 days. Each time point was measured with 6 replicates.
(§3) Student's t-test (two-sample equal variance) was used to evaluate statistically significant differences. All calculated p-values were two-sided and those less than 0.05 were considered statistically significant.

C4-2 cells = assay: MTS cell proliferation assay, androgen-independent C4-2 cells; type: cell-based, human; conditions: 10 μM, 6 days
Method: Cell proliferation assays were performed using the 3-(4,5-dimethylhiazol-2-yl)-5-(3-carboxymethoxyphenyl)-2-(4-sulfophenyl)-2H-tetrazolium Assay (MTS) according to the manufacturer's protocol, with minor modifications (Promega). C4-2 cells were plated in 96-well plates at a density of 750 cells per well in RPMI medium containing 5% CSS for 1 day. On the following day, the DDC inhibitors, carbidopa (25 μM) and NSD-1015 (10 μM)±0.1 nM R1881 were added to each well in charcoal-stripped serum (CSS; Hyclone, VWR) RPMI media. The cells were harvested at days 0, 2, 4, and 6, with a medium change every 3 days. Each time point was measured with 6 replicates.
as §3

DDC [4] = molecular target: T1, DDC (Homo sapiens, UniProt P20711); assay: Dopamine ELISA on conditioned medium of PC3 cells overexpressing DDC; type: cell-based; conditions: 1 μM NSD-1015, 24 hours, 1 nM R1881
T1 construct: expressed in transfected cells; host or cells: PC3 cells, co-transfected with pcDNA3.1-AR
T1 sequence (P20711 1-480): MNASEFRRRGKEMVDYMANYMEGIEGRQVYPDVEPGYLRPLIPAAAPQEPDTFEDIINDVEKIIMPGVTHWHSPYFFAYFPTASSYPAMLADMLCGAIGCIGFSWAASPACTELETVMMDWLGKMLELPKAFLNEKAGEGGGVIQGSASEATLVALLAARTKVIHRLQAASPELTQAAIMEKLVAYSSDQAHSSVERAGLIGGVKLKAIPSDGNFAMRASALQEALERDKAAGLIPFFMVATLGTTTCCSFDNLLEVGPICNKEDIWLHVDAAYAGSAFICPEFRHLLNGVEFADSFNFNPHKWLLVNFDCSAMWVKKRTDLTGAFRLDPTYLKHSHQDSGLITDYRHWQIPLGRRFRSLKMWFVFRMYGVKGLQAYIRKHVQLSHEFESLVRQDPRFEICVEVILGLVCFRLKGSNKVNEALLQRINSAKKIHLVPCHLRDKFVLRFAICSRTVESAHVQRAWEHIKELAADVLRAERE
Method: (§4) PC3 cells were seeded in 12-well plates at a density of 1.5×10^5 cells/well and transfected the following day with pcDNA3.1-AR and pDEST12.2-DDC or pDEST12.2 empty vector control, as described above for transactivation assays. The next day, media was changed to 5% DCC-FBS containing 1 nM R1881. Conditioned culture media was removed 24 hours later and stored at −80° C. A 100 μL volume of media was used for the competitive enzyme-linked immunosorbent assay (ELISA). Dopamine was assayed using the Dopamine Research Enzyme Immunoassay kit (Rocky Mountain Diagnostics) following the manufacturer's instructions. PC12 cells, used as a positive control, were grown to 70% confluency (12-well plates) and conditioned media was collected 24 hours later for assay, as above. Secreted DA levels from PC3 and PC12 cells were determined in the presence and absence of 1 μM NSD-1015 (3-hydroxybenzylhydrazine) DDC enzymatic inhibitor (Sigma). All ELISAs were performed in triplicate with two independent trials.

DDC [5] = molecular target: T2, DDC (Rattus norvegicus, UniProt P14173); assay: Dopamine ELISA on conditioned medium of PC12 cells; type: cell-based; conditions: 1 μM NSD-1015, 24 hours
T2 construct: PC12 cells were not transfected or treated with R1881 but were incubated 24 hours with or without NSD-1015; endogenous in cells; host or cells: PC12 rat adrenal pheochromocytoma cells
T2 sequence (P14173 1-480): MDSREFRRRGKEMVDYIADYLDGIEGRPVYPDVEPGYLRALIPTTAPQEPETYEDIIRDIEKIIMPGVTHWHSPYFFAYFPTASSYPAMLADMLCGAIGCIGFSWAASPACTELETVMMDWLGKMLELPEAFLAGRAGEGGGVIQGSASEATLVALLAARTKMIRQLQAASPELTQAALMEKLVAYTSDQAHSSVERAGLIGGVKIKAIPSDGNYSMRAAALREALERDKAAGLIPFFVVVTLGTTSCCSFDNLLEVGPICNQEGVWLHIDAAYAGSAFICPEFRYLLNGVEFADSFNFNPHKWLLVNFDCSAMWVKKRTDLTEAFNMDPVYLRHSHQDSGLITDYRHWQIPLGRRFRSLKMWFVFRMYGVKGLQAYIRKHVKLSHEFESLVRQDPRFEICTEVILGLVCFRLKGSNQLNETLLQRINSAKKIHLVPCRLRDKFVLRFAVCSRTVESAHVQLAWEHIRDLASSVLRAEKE
Method: as §4

AR [6] = assay: AR transactivation assay (pARR3-tk-Luc) in LNCaP cells; type: cell-based, human; conditions: endogenous AR, 24 hours
Excerpt: as §2

AR ligand binding domain = molecular target: T3, AR ligand binding domain (Rattus norvegicus, UniProt P15207); assay: In vitro hydroxylapatite pulldown ligand binding assay
T3 construct: purchased PanVera
T3 sequence (P15207 651-882 limits assumed): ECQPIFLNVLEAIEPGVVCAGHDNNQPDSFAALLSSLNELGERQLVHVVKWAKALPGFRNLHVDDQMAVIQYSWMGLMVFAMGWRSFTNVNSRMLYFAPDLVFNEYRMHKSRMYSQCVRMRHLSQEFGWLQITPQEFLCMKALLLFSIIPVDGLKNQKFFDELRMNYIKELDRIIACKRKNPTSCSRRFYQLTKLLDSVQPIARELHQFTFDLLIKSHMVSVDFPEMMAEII
Method: Recombinant rat thioredoxin-fused AR ligand binding domain (PanVera, 1.390 mg/mL, 48.4 kDa), which is identical to the human AR-LBD, was used for hydroxylapatite (HAP) pulldown ligand binding assays at R1881 concentrations of 0 to 1000 nM {Portigal, 2002 #86}. Initially, his-tagged-DDC protein was expressed in BL21-SI bacteria, containing the pDEST17-His-DDC plasmid, and purified using a nickel-nitrilotriacetic acid (Ni-NTA)-agarose column according to the manufacturer's protocol (Qiagen). Purified AR-LBD was diluted to a final concentration of 1 μg/mL in binding buffer (50 mM Tris pH 7.5, 10% glycerol, 0.8 M NaCl, 1 mg/mL BSA and 2 mM dithiothreitol), containing tracer 20 nM [^3H]-R1881 (NEN Life Science Products, 75.2 Ci/mmol, 1 mCi/mL). In order to minimize the use of radioactive ligand, supplemental cold R1881 was added to the assay mix to achieve the high 100 nM and 1000 nM total R1881 concentrations. Assays were carried out in the absence and presence of 0.5 μg of His-DDC protein, which was added directly to the 1 mL assay mix. Following overnight incubation at 4° C., a 50% HAP slurry (Calbiochem Fast Flow hydroxylapatite in […] pH 8.0 and 1 mM EDTA) was added to the assay, pellets were incubated on ice for 10 minutes, and then washed four times with wash buffer (40 mM Tris pH 7.5, 100 mM KCl, 1 mM EDTA and 1 mM EGTA). HAP pellets were resuspended in ethanol and bound [^3H]-R1881 was measured (disintegrations per minute, dpm) using a Beckman LS 6500 scintillation counter.
To determine non-specific binding (NSB) to the HAP matrix, control pulldown assays were carried out using an assay mix that lacked AR-LBD. […] NSB values were subtracted from sample measurements for determination of specific binding. The total dpm per assay was determined by measuring a known amount of [^3H]-R1881 and normalizing to the total assay volume (1 mL). All assays were carried out in triplicate and the pmole bound [^3H]-R1881/mg AR-LBD protein was calculated by using the measured dpm of tracer 20 nM [^3H]-R1881. Calculated values were then extrapolated to determine total ligand bound at the 10 nM, 100 nM and 1000 nM R1881 concentrations. Results were expressed as the mean total pmole bound R1881/mg AR-LBD protein (±SEM).

AR [7] = assay: Cell-based ligand binding assay in HeLa-AR cells (cytosol); set-up: species or system human
Method: HeLa-AR cells were cultured for 24-48 hours in DMEM containing 5% DCC-FBS and seeded onto 6 cm plates at a density of 1×10^6 cells/plate. After 5 hours, cells were transfected with either pDEST12.2-DDC or pDEST12.2 control vector (5 μg/plate) using Lipofectin Reagent (Invitrogen). The next day, transfection mix was changed to DMEM supplemented with 5% DCC-FBS containing increasing concentrations of [^3H]-R1881 (0-10 nM). To determine non-specific binding, hormone treatments were carried out in the presence (NSB) and absence (total binding) of excess cold 1000 nM R1881. After 24 hours of incubation with hormone, cells were harvested as described previously. […]
Cytosolic and nuclear extracts were then thawed and incubated for 6 hours with agarose beads conjugated to FLAG monoclonal antibody (Sigma, USA). […] Beads were washed with Buffer D (20 mM HEPES pH 7.9, 20% glycerol, 0.3 M KCl, 0.2 mM EDTA, 0.05% NP-40, 0.5 mM DTT, 0.5 mM PMSF) and specifically bound ligand (total binding—NSB) to the immunopreciptated FLAG-tagged AR protein was determined by measuring the levels of tritium (dpm) in bead resuspensions using a scintillation counter. All measured bound dpm values were normalized to corresponding Western blot AR protein band intensities. Results were expressed as the relative (normalized to the level of AR protein) mean bound ligand of three replicates (±SEM).

[8] = presence of hormone (0.1 nM R1881)

NCCc1c[nH]c2ccc(O)cc12 [5-HT, 5-hyroxytyrptamine]
intracellular cAMP response (PC3 cells; 5-HT 10 minutes): did not increase cAMP levels
intracellular cAMP response (LNCaP cells [1]): did not increase cAMP levels
AR activity in the absence or presence of ligand (AR [2]; 0-100 nM, with or without 1 nM R1881, 24 hours): did not alter AR activity

NCCc1ccc(O)c(O)c1 [DA, dopamine]
increase in intracellular cAMP versus untreated cells (PC3 cells; maximum 200 μM concentration, 15 minutes): ~52 fold
intracellular cAMP response (LNCaP cells [1]): did not induce a significant cAMP response
repression of ligand-dependent AR transcription (AR [2]; highest 200 μM concentration, 1 nM R1881, 24 hours): 2.2 fold
ligand-independent activation of AR (AR [2]; without R1881, 24 hours): not affected

NNCc1cccc(O)c1 [NSD-1015, 3-hydroxybenzylhydrazine]
decrease in cell growth (LNCaP cells [3]; absence of hormone): 1.43 fold
decline in cell growth (LNCaP cells [3]; [8]): 1.15 fold
decrease in cell growth (C4-2 cells; absence of hormone): 1.20 fold
decline in cell growth (C4-2 cells; [8]): 1.24 fold
secreted DA level (DDC [4]): 220±85 pg/mL CM
reduction of DA levels (DDC [5]): 2.6 fold
secreted DA level (DDC [5]): 3561±2032 pg/mL CM

C[C@]1(O)CC[C@H]2[C@@H]3CCC4=CC(=O)CCC4=C3C=C[C@@]21C [R1881]
minimum concentration required for activation of AR transcription (AR [2]; PC3 cells transfected with AR, 24 hours): 0.1 nM
minimum concentration required for activation of AR transcription (AR [6]): 0.1 nM
available ligand bound to AR-LBD (ligand-binding efficiency) (AR ligand binding domain; 20 nM [3H]-R1881, absence and presence of His-DDC): about 5%
ligand-binding efficiency (AR ligand binding domain; 100 nM R1881, absence of DDC): 14%
total available ligand bound to AR-LBD (AR ligand binding domain; 100 nM R1881, with His-DDC): 24.5%
ligand-binding efficiency (AR ligand binding domain; 1000 nM R1881, absence of DDC): 54%
total available ligand bound to AR-LBD (AR ligand binding domain; 1000 nM R1881, with His-DDC): 92%
R1881 concentration required to 50% saturate total AR-LBD protein (AR ligand binding domain; absence of His-DDC): 883 nM
R1881 concentration required to 50% saturate total AR-LBD protein (AR ligand binding domain; presence of His-DDC (0.5 μg/assay)): 425 nM
bound R1881 (AR ligand binding domain; tracer 20 nM [3H]-R1881, AR-LBD control): 895±93 pmole bound R1881/mg AR-LBD
bound R1881 (AR ligand binding domain; tracer 20 nM [3H]-R1881, AR-LBD+His-DDC): 937±111 pmole bound R1881/mg AR-LBD
amount of R1881 required to reach the control Bmax (AR [7]; presence of DDC (overexpression)): 0.56 nM
R1881 concentration at which control Bmax occurred (AR [7]; vector control): 1 nM
